Assay results published in patent US7846959B2, “Raf modulators and methods of use” (Exelixis, Inc., priority 2004, dated 2010).

Legend:
c-Raf = c-Raf (Homo sapiens, UniProt P04049); experiment: Luciferase-coupled chemiluminescence kinase assay (ATP consumption), c-Raf; type: biochemical; conditions: read-out: cRaf-1 (inhibition indicated as IC50)
How it was run: (§1)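 Enzyme ([…]) was pre-incubated with compound for 30 min at room temperature in 20 mM Tris pH 7.5, 10 mM MgCl2, 0.03% TX-100, 1 mM DTT. ATP was added and the reaction ran 3 h at ambient temperature. Remaining ATP was read by luciferase-luciferin chemiluminescence, giving IC50 values.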

B-Raf = B-Raf (Homo sapiens, UniProt P15056); experiment: Luciferase-coupled chemiluminescence kinase assay (ATP consumption), B-Raf; type: biochemical; conditions: read-out: bRaf (inhibition indicated as IC50)
Chain of B-Raf (P15056 whole entry): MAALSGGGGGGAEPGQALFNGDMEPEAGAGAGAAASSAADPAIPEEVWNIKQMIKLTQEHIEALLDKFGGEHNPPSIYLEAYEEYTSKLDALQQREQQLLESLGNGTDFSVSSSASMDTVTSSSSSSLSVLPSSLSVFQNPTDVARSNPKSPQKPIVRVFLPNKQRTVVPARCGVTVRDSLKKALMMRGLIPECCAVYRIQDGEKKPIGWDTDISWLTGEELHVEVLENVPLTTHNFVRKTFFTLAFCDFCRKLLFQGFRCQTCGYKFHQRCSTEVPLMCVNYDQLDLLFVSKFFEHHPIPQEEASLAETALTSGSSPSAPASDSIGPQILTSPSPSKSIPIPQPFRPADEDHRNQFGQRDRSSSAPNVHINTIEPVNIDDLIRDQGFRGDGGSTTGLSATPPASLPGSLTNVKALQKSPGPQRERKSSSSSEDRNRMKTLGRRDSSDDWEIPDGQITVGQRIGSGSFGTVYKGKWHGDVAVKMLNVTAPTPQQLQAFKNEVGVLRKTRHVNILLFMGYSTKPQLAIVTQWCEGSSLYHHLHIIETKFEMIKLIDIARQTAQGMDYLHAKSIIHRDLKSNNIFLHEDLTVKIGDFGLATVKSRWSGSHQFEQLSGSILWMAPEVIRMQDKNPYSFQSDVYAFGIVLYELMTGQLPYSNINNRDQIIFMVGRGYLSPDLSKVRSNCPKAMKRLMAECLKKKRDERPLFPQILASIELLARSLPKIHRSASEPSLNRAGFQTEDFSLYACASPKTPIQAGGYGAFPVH
How it was run: as §1

Chain of c-Raf (P04049 whole entry): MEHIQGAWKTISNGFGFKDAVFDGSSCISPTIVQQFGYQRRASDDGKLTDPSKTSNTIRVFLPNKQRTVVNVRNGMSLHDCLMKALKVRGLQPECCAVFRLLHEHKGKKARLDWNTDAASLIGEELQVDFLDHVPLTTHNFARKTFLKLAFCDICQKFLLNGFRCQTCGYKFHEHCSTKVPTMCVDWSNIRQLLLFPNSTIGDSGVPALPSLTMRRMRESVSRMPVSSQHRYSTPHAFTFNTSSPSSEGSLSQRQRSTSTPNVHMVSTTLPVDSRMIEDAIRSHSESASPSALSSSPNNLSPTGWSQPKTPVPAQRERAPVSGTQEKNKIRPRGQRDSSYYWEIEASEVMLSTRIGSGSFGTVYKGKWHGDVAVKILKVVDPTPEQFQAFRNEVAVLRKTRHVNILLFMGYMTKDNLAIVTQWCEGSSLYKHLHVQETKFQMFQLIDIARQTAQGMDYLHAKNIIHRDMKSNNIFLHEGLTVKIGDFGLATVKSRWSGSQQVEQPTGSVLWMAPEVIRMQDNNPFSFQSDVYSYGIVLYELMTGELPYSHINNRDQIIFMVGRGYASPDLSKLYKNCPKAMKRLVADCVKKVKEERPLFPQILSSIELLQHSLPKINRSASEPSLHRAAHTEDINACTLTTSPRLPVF

Row | SMILES | IC50 (c-Raf) [nM] | IC50 (B-Raf) [nM]
1 | COC(=O)Nc1nc2ccc(C(=O)c3ccccc3C(=O)Nc3cc(Cl)ccc3F)cc2[nH]1 [Entry 402, methyl {6-[(2-{[(5-chloro-2-fluorophenyl)amino]carbonyl}phenyl)carbonyl]-1H-benzimidazol-2-yl}carbamate] | < 100 | < 100
2 | COC(=O)Nc1nc2ccc(C(=O)c3ccccc3C(=O)Nc3ccc(F)c(Br)c3)cc2[nH]1 [Entry 406, methyl {6-[(2-{[(3-bromo-4-fluorophenyl)amino]carbonyl}phenyl)carbonyl]-1H-benzimidazol-2-yl}carbamate] | < 100 | < 100
3 | COC(=O)Nc1nc2ccc(C(=O)c3ccccc3C(=O)Nc3cccc(Cl)c3F)cc2[nH]1 [Entry 407, methyl {6-[(2-{[(3-chloro-2-fluorophenyl)amino]carbonyl}phenyl)carbonyl]-1H-benzimidazol-2-yl}carbamate] | < 100 | < 100
4 | COC(=O)Nc1nc2ccc(C(=O)c3ccccc3C(=O)Nc3ccc(F)c(C)c3)cc2[nH]1 [Entry 408, methyl {6-[(2-{[(4-fluoro-3-methylphenyl)amino]carbonyl}phenyl)carbonyl]-1H-benzimidazol-2-yl}carbamate] | < 100 | < 100
5 | COC(=O)Nc1nc2ccc(C(=O)c3ccccc3C(=O)Nc3cc(Br)c(F)cc3F)cc2[nH]1 [Entry 410, methyl {6-[(2-{[(5-bromo-2,4-difluorophenyl)amino]carbonyl}phenyl)carbonyl]-1H-benzimidazol-2-yl}carbamate] | < 100 | < 100
6 | COC(=O)Nc1nc2ccc(C(=O)c3ccccc3C(=O)Nc3cc(Cl)c(F)cc3F)cc2[nH]1 [Entry 411, methyl {6-[(2-{[(5-chloro-2,4-difluorophenyl)amino]carbonyl}phenyl)carbonyl]-1H-benzimidazol-2-yl}carbamate] | < 100 | < 100
7 | C=Cc1cccc(NC(=O)c2ccccc2C(=O)c2ccc3nc(NC(=O)OC)[nH]c3c2)c1 [Entry 413, methyl {6-[(2-{[(3-ethenylphenyl)amino]carbonyl}phenyl)carbonyl]-1H-benzimidazol-2-yl}carbamate] | < 100 | < 100
8 | C#Cc1cccc(NC(=O)c2ccccc2C(=O)c2ccc3nc(NC(=O)OC)[nH]c3c2)c1F [Entry 414, methyl {6-[(2-{[(3-ethynyl-2-fluorophenyl)amino]carbonyl}phenyl)carbonyl]-1H-benzimidazol-2-yl}carbamate] | < 100 | < 100
9 | C=Cc1cccc(NC(=O)c2ccccc2C(=O)c2ccc3nc(NC(=O)OC)[nH]c3c2)c1F [Entry 418, methyl {6-[(2-{[(3-ethenyl-2-fluorophenyl)amino]carbonyl}phenyl)carbonyl]-1H-benzimidazol-2-yl}carbamate] | < 100 | < 100
10 | COC(=O)Nc1nc2ccc(C(=O)c3ccccc3C(=O)Nc3cc(C)ccc3F)cc2[nH]1 [Entry 419, methyl {6-[(2-{[(2-fluoro-5-methylphenyl)amino]carbonyl}phenyl)carbonyl]-1H-benzimidazol-2-yl}carbamate] | < 100 | < 100

Continued, values first:

Row | IC50 (c-Raf) [nM] | IC50 (B-Raf) [nM] | SMILES
11 | < 100 | < 100 | COc1cccc(N2C(=O)c3ccccc3C2(O)c2ccc3[nH]c(Nc4cnccn4)nc3c2)c1 (stereo not shown) [Entry 391, 3-hydroxy-2-[3-(methyloxy)phenyl]-3-[2-(pyrazin-2-ylamino)-1H-benzimidazol-5-yl]-2,3-dihydro-1H-isoindol-1-one]
12 | < 100 | < 100 | COC(=O)Nc1nc2ccc(C(=O)c3ccccc3C(=O)NCc3cccs3)cc2[nH]1 [Entry 392, methyl {6-[(2-{[(2-thienylmethyl)amino]carbonyl}phenyl)carbonyl]-1H-benzimidazol-2-yl}carbamate]
13 | < 100 | < 100 | COC(=O)Nc1nc2ccc(C(=O)c3ccccc3C(=O)Nc3cccc(Br)c3)cc2[nH]1 [Entry 394, methyl {6-[(2-{[(3-bromophenyl)amino]carbonyl}phenyl)carbonyl]-1H-benzimidazol-2-yl}carbamate]
14 | < 100 | < 100 | COC(=O)Nc1nc2ccc(C(=O)c3ccccc3C(=O)Nc3cccc(Cl)c3)cc2[nH]1 [Entry 395, methyl {6-[(2-{[(3-chlorophenyl)amino]carbonyl}phenyl)carbonyl]-1H-benzimidazol-2-yl}carbamate]
15 | < 100 | < 100 | COC(=O)Nc1nc2ccc(C(=O)c3ccccc3C(=O)Nc3cccc(OC)c3)cc2[nH]1 [Entry 397, methyl (6-{[2-({[3-(methyloxy)phenyl]amino}carbonyl)phenyl]carbonyl}-1H-benzimidazol-2-yl)carbamate]
16 | < 100 | < 100 | COC(=O)Nc1nc2ccc(C(=O)c3ccccc3C(=O)Nc3cccc(C(F)(F)F)c3)cc2[nH]1 [Entry 398, methyl (6-{[2-({[3-(trifluoromethyl)phenyl]amino}carbonyl)phenyl]carbonyl}-1H-benzimidazol-2-yl)carbamate]
17 | < 100 | < 100 | COC(=O)Nc1nc2ccc(C(=O)c3ccccc3C(=O)Nc3ccc(F)c(Cl)c3)cc2[nH]1 [Entry 401, methyl {6-[(2-{[(3-chloro-4-fluorophenyl)amino]carbonyl}phenyl)carbonyl]-1H-benzimidazol-2-yl}carbamate]
